According to ChEMBL document CHEMBL1255490, “In vitro activities of DC-159a, a novel fluoroquinolone, against Mycobacterium species” (Antimicrob Agents Chemother, 2010):
≈ marks a conversion by molar mass, not a printed value.

Assays:
[1] = system: Mycobacterium tuberculosis; assay: Antimycobacterial activity against drug-susceptible Mycobacterium tuberculosis after 21 days by agar dilution method; format: functional; settings: 504 h
[2] = system: Mycobacterium kansasii; assay: Antimycobacterial activity against Mycobacterium kansasii after 7 days by agar dilution method; format: functional; settings: 168 h
[3] = system: Mycolicibacterium fortuitum; assay: Antimycobacterial activity against Mycobacterium fortuitum after 3 days by agar dilution method; format: functional; settings: 72 h
[4] = system: Mycobacterium avium; assay: Antimycobacterial activity against Mycobacterium avium serovar 4 after 14 days by agar dilution method; format: functional; settings: serovar 4, 336 h
[5] = system: Mycobacterium avium; assay: Antimycobacterial activity against Mycobacterium avium serovar 8 after 14 days by agar dilution method; format: functional; settings: serovar 8, 336 h
[6] = system: Mycobacterium intracellulare; assay: Antimycobacterial activity against Mycobacterium intracellular serovar 16 after 21 days by agar dilution method; format: functional; settings: serovar 16, 504 h
[7] = system: Mycobacteroides chelonae; assay: Antimycobacterial activity against Mycobacterium chelonae after 3 days by agar dilution method; format: functional; settings: 72 h
[8] = system: Mycobacteroides abscessus; assay: Antimycobacterial activity against Mycobacterium abscessus after 3 days by agar dilution method; format: functional; settings: 72 h
[9] = Cmax in monkey at 5 mg/kg, po; format: ADME, organism-based, Macaca mulatta; design: dose 5 mg/kg, route oral; settings: rhesus monkey, in vivo
[10] = AUC (0 to 24 hrs) in monkey at 5 mg/kg, po; format: ADME, organism-based, Macaca mulatta; design: time < 24 hr, dose 5 mg/kg, route oral; settings: rhesus monkey, plasma

COc1c(N2CC3(CC3)[C@](C)(N)C2)c(F)cc2c(=O)c(C(=O)O)cn([C@@H]3C[C@@H]3F)c12
MIC50 [1]: 0.06 µg/mL (≈ 0.143 µM) | MIC90 [1]: 0.06 µg/mL (≈ 0.143 µM) | MIC50 [2]: 0.06 µg/mL (≈ 0.143 µM) | MIC90 [2]: 0.125 µg/mL (≈ 0.298 µM) | MIC50 [3]: 0.125 µg/mL (≈ 0.298 µM) | MIC90 [3]: 0.25 µg/mL (≈ 0.596 µM) | MIC50 [4]: 1 µg/mL (≈ 2.38 µM) | MIC90 [4]: 2 µg/mL (≈ 4.77 µM) | MIC50 [5]: 1 µg/mL (≈ 2.38 µM) | MIC90 [5]: 2 µg/mL (≈ 4.77 µM) | MIC50 [6]: 1 µg/mL (≈ 2.38 µM) | MIC90 [6]: 4 µg/mL (≈ 9.54 µM) | MIC [7]: 4 µg/mL (≈ 9.54 µM) | MIC50 [7]: 4 µg/mL (≈ 9.54 µM) | MIC90 [7]: 8 µg/mL (≈ 19.1 µM) | MIC50 [8]: 8 µg/mL (≈ 19.1 µM) | MIC90 [8]: 16 µg/mL (≈ 38.1 µM) | Cmax [9]: 2200 ng/mL | AUC(0-t) at 24 h [10]: 16900 ng·h/mL

COc1c(N2CCNC(C)C2)c(F)cc2c(=O)c(C(=O)O)cn(C3CC3)c12 (configuration not stated) [GATIFLOXACIN]
MIC50 [1]: 0.125 µg/mL (≈ 0.333 µM) | MIC90 [1]: 0.25 µg/mL (≈ 0.666 µM) | MIC50 [2]: 0.125 µg/mL (≈ 0.333 µM) | MIC90 [2]: 0.5 µg/mL (≈ 1.33 µM) | MIC50 [3]: 0.125 µg/mL (≈ 0.333 µM) | MIC90 [3]: 0.25 µg/mL (≈ 0.666 µM) | MIC50 [4]: 2 µg/mL (≈ 5.33 µM) | MIC90 [4]: 8 µg/mL (≈ 21.3 µM) | MIC50 [5]: 2 µg/mL (≈ 5.33 µM) | MIC90 [5]: 8 µg/mL (≈ 21.3 µM) | MIC50 [6]: 4 µg/mL (≈ 10.7 µM) | MIC90 [6]: 16 µg/mL (≈ 42.6 µM) | MIC50 [7]: 16 µg/mL (≈ 42.6 µM) | MIC90 [7]: 32 µg/mL (≈ 85.2 µM) | MIC50 [8]: 32 µg/mL (≈ 85.2 µM) | MIC90 [8]: 64 µg/mL (≈ 170 µM)

C[C@H]1COc2c(N3CCN(C)CC3)c(F)cc3c(=O)c(C(=O)O)cn1c23.C[C@H]1COc2c(N3CCN(C)CC3)c(F)cc3c(=O)c(C(=O)O)cn1c23.O [LEVOFLOXACIN]
MIC50 [1]: 0.5 µg/mL | MIC90 [1]: 0.5 µg/mL | MIC [2]: 0.25 µg/mL | MIC50 [2]: 0.25 µg/mL | MIC90 [2]: 1 µg/mL | MIC50 [3]: 0.25 µg/mL | MIC90 [3]: 0.5 µg/mL | MIC50 [4]: 8 µg/mL | MIC90 [4]: 32 µg/mL | MIC50 [5]: 8 µg/mL | MIC90 [5]: 32 µg/mL | MIC50 [6]: 8 µg/mL | MIC90 [6]: 32 µg/mL | MIC50 [7]: 32 µg/mL | MIC90 [7]: 64 µg/mL | MIC50 [8]: 64 µg/mL | MIC90 [8]: 128 µg/mL

COc1c(N2C[C@@H]3CCCN[C@@H]3C2)c(F)cc2c(=O)c(C(=O)O)cn(C3CC3)c12 [MOXIFLOXACIN]
MIC50 [1]: 0.25 µg/mL (≈ 0.623 µM) | MIC90 [1]: 0.25 µg/mL (≈ 0.623 µM) | MIC50 [2]: 0.125 µg/mL (≈ 0.311 µM) | MIC90 [2]: 0.25 µg/mL (≈ 0.623 µM) | MIC50 [3]: 0.125 µg/mL (≈ 0.311 µM) | MIC90 [3]: 0.25 µg/mL (≈ 0.623 µM) | MIC50 [6]: 2 µg/mL (≈ 4.98 µM) | MIC90 [6]: 8 µg/mL (≈ 19.9 µM) | MIC50 [7]: 32 µg/mL (≈ 79.7 µM) | MIC90 [7]: 32 µg/mL (≈ 79.7 µM) | MIC50 [8]: 64 µg/mL (≈ 159 µM) | MIC90 [8]: 128 µg/mL (≈ 319 µM)

CO[C@H]1/C=C/O[C@@]2(C)Oc3c(C)c(O)c4c(O)c(c(/C=N/N5CCN(C)CC5)c(O)c4c3C2=O)NC(=O)/C(C)=C\C=C\[C@H](C)[C@H](O)[C@@H](C)[C@@H](O)[C@@H](C)[C@H](OC(C)=O)[C@@H]1C [RIFAMPIN]
MIC50 [1]: 0.06 µg/mL (≈ 0.0729 µM) | MIC90 [1]: 0.125 µg/mL (≈ 0.152 µM) | MIC50 [2]: 0.25 µg/mL (≈ 0.304 µM) | MIC90 [2]: 0.25 µg/mL (≈ 0.304 µM) | MIC50 [3]: 32 µg/mL (≈ 38.9 µM) | MIC90 [3]: 64 µg/mL (≈ 77.8 µM) | MIC50 [4]: 32 µg/mL (≈ 38.9 µM) | MIC90 [4]: 128 µg/mL (≈ 156 µM) | MIC50 [5]: 32 µg/mL (≈ 38.9 µM) | MIC90 [5]: 128 µg/mL (≈ 156 µM) | MIC50 [6]: 2 µg/mL (≈ 2.43 µM) | MIC90 [6]: 32 µg/mL (≈ 38.9 µM) | MIC [7]: > 128 µg/mL | MIC50 [7]: > 128 µg/mL | MIC90 [7]: > 128 µg/mL | MIC [8]: > 128 µg/mL | MIC50 [8]: > 128 µg/mL | MIC90 [8]: > 128 µg/mL
